Laboratory results reported in patent publication US12109187B2, “Antimicrobial compositions and related methods” (priority 2020, dated 2024).
Entries after “also recorded” stand apart in the source; their conditions may differ.

Legend:
[1] = system: mammalian cells
[2] = system: IglC; assay type: cell-based, Francisella tularensis LVS
[3] = system: Acinetobacter baumannii; design: species or system Galleria mellonella; settings: in vivo
[4] = system: IglA; assay type: cell-based, Francisella tularensis LVS
[5] = system: F. tularensis live vaccine strain (LVS); test: microbe, parasite or virus in culture; assay type: cell-based, Francisella tularensis
[6] = system: A. baumannii; assay type: cell-based, Acinetobacter baumannii
[7] = system: MglA/SspA regulon; assay type: cell-based, Francisella tularensis LVS
[8] = system: F. tularensis LVS; assay type: cell-based, Francisella tularensis
[9] = system: F. tularensis LVS/pTC3D; assay type: cell-based, Francisella tularensis
[10] = system: TNFα; assay type: cell-based
[11] = system: LpnA; assay type: cell-based, Francisella tularensis LVS

With `C=CCc1cc2c(c(OC)c1OC)OCO2` [dillapiole] the “toxicity to mammalian cells” value [1] was “not toxic to mammalian cells”, the IglC protein expression [2] was “significant reduction” and the “rate of survival of infected wax worms” value [3] was “significantly higher rate of survival”. For the same compound, the IglA protein expression [4] was “significant reduction”, the “intracellular replication of F. tularensis LVS in THP-1 monocytes (CFU)” value [5] was “sufficient to inhibit replication of F. tularensis” and the MIC ([5]; Francisella tularensis, read-out: minimum inhibitory concentration (MIC)) was less than 7 µg/mL. For the same compound, the “A. baumannii viability in rich growth media” value [6] was “did not diminish A. baumannii viability”, the “expression of virulence factors / genes controlled by MglA/SspA (incl. FPI genes)” value [7] was “decrease in expression of several key virulence factors; also recorded: significantly decreased expression following treatment with dillapiole” and the “bacterial growth as determined by optical density” value [8] was “did not affect bacterial growth”. For the same compound, the “replication of F. tularensis in RAW 264.7 mouse macrophages” value [9] was “sufficient to inhibit replication of F. tularensis”, the TNFα production [10] was “decreased TNFα production” and the LpnA production [11] was “unaffected”.
